# US9365584B2, “Thieno [2,3-B] pyridinedione activators of AMPK and therapeutic uses thereof” (Poxel, priority 2009, dated 2016)
# Test system: AMPK
# Assay: AMPK enzyme activity assay (Delfia technology, AMARA peptide substrate)
# Type: biochemical
# Details: compound at 30 μM vs AMP at 200 μM
# Outline: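 Value is the ratio of compound (30 μM) to AMP (200 μM) response, each as % of basal control. Phosphorylation of the AMARA peptide after AMPK addition was read by Delfia with an anti-phosphoserine antibody.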
row,Compound,Activity: Ratio between the % of control (basal activity) of compound of formula (1) at 30 μM and the % of control (basal activity) of AMP (natural substrate) at 200 μM
1,"2-chloro-5-(3-methoxyphenyl)-5-methyl-3-(p-tolyl)-7H-thieno[2,3-b]pyridine-4,6-dione [No 209]",A (0%<A<50%)
2,"CC1(c2ccccc2F)C(=O)Nc2sc(Cl)c(-c3cccc(F)c3)c2C1=O (centres unmarked) [No 104, 2-chloro-5-(2-fluorophenyl)-3-(3-fluorophenyl)-5-methyl-7H-thieno[2,3-b]pyridine-4,6-dione]",B (50%≦B<75%)
3,"O=C(O)c1cccc(-c2c(F)sc3c2C(=O)C(F)(c2ccccc2)C(=O)N3)c1 (centres unmarked) [No 197, 3-(2,5-difluoro-4,6-dioxo-5-phenyl-7H-thieno[2,3-b]pyridin-3-yl)benzoic acid]",A (0%<A<50%)
4,"CC1(C)C(=O)Nc2scc(-c3ccccc3)c2C1=O [No 18, 5,5-dimethyl-3-phenyl-7H-thieno[2,3-b]pyridine-4,6-dione]",A (0%<A<50%)
5,"O=C1Nc2scc(-c3ccc(F)cc3)c2C(=O)C1(F)c1ccccc1 (centres unmarked) [No 189, 5-fluoro-3-(4-fluorophenyl)-5-phenyl-7H-thieno[2,3-b]pyridine-4,6-dione]",A (0%<A<50%)
6,"N#Cc1cccc(C2(F)C(=O)Nc3sc(Cl)c(-c4ccc(F)cc4O)c3C2=O)c1 (centres unmarked) [No 224, 3-[2-chloro-5-fluoro-3-(4-fluoro-2-hydroxy-phenyl)-4,6-dioxo-7H-thieno[2,3-b]pyridin-5-yl]benzonitrile]",C (C≧75%)
7,"O=C1Nc2scc(-c3ccccc3)c2C(=O)C1(F)c1cccc(C(F)(F)F)c1 (centres unmarked) [No 131, 5-fluoro-3-phenyl-5-[3-(trifluoromethyl)phenyl]-7H-thieno[2,3-b]pyridine-4,6-dione]",B (50%≦B<75%)
8,"Cc1cccc(C2(Cl)C(=O)Nc3sc(Cl)c(-c4ccc(F)cc4O)c3C2=O)c1 (centres unmarked) [No 176, 2,5-dichloro-3-(4-fluoro-2-hydroxy-phenyl)-5-(m-tolyl)-7H-thieno[2,3-b]pyridine-4,6-dione]",C (C≧75%)
9,"O=C1Nc2sc(F)c(-c3ccccc3)c2C(=O)C1(F)c1cccc(C(F)(F)F)c1 (centres unmarked) [No 132, 2,5-difluoro-3-phenyl-5-[3-(trifluoromethyl)phenyl]-7H-thieno[2,3-b]pyridine-4,6-dione]",A (0%<A<50%)
10,"Cc1ccc(-c2c(F)sc3c2C(=O)C(F)(c2ccccc2)C(=O)N3)cc1O (centres unmarked) [No 116, 2,5-difluoro-3-(3-hydroxy-4-methyl-phenyl)-5-phenyl-7H-thieno[2,3-b]pyridine-4,6-dione]",C (C≧75%)
11,"O=C1Nc2scc(-c3ccc(O)c(F)c3)c2C(=O)C1(F)c1ccccc1 (centres unmarked) [No 194, 5-fluoro-3-(3-fluoro-4-hydroxy-phenyl)-5-phenyl-7H-thieno[2,3-b]pyridine-4,6-dione]",C (C≧75%)
12,"Cc1ccc(C2(F)C(=O)Nc3scc(-c4ccc(F)cc4O)c3C2=O)cc1 (centres unmarked) [No 109, 5-fluoro-3-(4-fluoro-2-hydroxy-phenyl)-5-(p-tolyl)-7H-thieno[2,3-b]pyridine-4,6-dione]",C (C≧75%)
13,"COc1ccc(C2(F)C(=O)Nc3sc(F)c(-c4ccccc4)c3C2=O)cc1 (centres unmarked) [No 168, 2,5-difluoro-5-(4-methoxyphenyl)-3-phenyl-7H-thieno[2,3-b]pyridine-4,6-dione]",A (0%<A<50%)
14,"Cc1ccc(-c2c(Cl)sc3c2C(=O)C(F)(c2ccccc2)C(=O)N3)cc1 (centres unmarked) [No 80, 2-chloro-5-fluoro-5-phenyl-3-(p-tolyl)-7H-thieno[2,3-b]pyridine-4,6-dione]",C (C≧75%)
15,"O=C1Nc2sc(Cl)c(-c3ccccc3)c2C(=O)C1(F)c1ccccc1 (centres unmarked) [No 20, 2-chloro-5-fluoro-3,5-diphenyl-7H-thieno[2,3-b]pyridine-4,6-dione]",C (C≧75%)

# More lines, now with the values ahead:
row,Activity: Ratio between the % of control (basal activity) of compound of formula (1) at 30 μM and the % of control (basal activity) of AMP (natural substrate) at 200 μM,Compound
1,B (50%≦B<75%),"COc1cccc(C2(C)C(=O)Nc3sc(Cl)c(-c4cccc(C)c4)c3C2=O)c1 (centres unmarked) [No 126, 2-chloro-5-(3-methoxyphenyl)-5-methyl-3-(m-tolyl)-7H-thieno[2,3-b]pyridine-4,6-dione]"
2,C (C≧75%),"COc1ccccc1-c1c(Cl)sc2c1C(=O)C(C)(c1ccc(C)cc1)C(=O)N2 (centres unmarked) [No 65, 2-chloro-3-(2-methoxyphenyl)-5-methyl-5-(p-tolyl)-7H-thieno[2,3-b]pyridine-4,6-dione]"
3,A (0%<A<50%),"COc1cccc(-c2c(Cl)sc3c2C(=O)C(C)(c2ccc(F)cc2)C(=O)N3)c1 (centres unmarked) [No 42, 2-chloro-5-(4-fluorophenyl)-3-(3-methoxyphenyl)-5-methyl-7H-thieno[2,3-b]pyridine-4,6-dione]"
4,A (0%<A<50%),"CC1(c2cccc(S(C)(=O)=O)c2)C(=O)Nc2sc(Cl)c(-c3cccc(F)c3)c2C1=O (centres unmarked) [No 148, 2-chloro-3-(3-fluorophenyl)-5-methyl-5-(3-methyl-sulfonylphenyl)-7H-thieno[2,3-b]pyridine-4,6-dione]"
5,A (0%<A<50%),"COc1cccc(C2(C)C(=O)Nc3sc(Cl)c(-c4ccccc4)c3C2=O)c1 (centres unmarked) [No 38, 2-chloro-5-(3-methoxyphenyl)-5-methyl-3-phenyl-7H-thieno[2,3-b]pyridine-4,6-dione]"
6,B (50%≦B<75%),"CC1(c2ccccc2F)C(=O)Nc2sc(Cl)c(-c3ccc(F)cc3)c2C1=O (centres unmarked) [No 55, 2-chloro-5-(2-fluorophenyl)-3-(4-fluorophenyl)-5-methyl-7H-thieno[2,3-b]pyridine-4,6-dione]"
7,C (C≧75%),"COc1cccc(C2(C)C(=O)Nc3sc(Cl)c(-c4ccc(F)cc4)c3C2=O)c1 (centres unmarked) [No 63, 2-chloro-3-(4-fluorophenyl)-5-(3-methoxyphenyl)-5-methyl-7H-thieno[2,3-b]pyridine-4,6-dione]"
8,A (0%<A<50%),"Cc1cccc(-c2c(Cl)sc3c2C(=O)C(C)(c2cccc(F)c2)C(=O)N3)c1 (centres unmarked) [No 158, 2-chloro-5-(3-fluorophenyl)-5-methyl-3-(m-tolyl)-7H-thieno[2,3-b]pyridine-4,6-dione]"
